From article PMC9645260, “Small-molecule inhibitors of P-Rex guanine-nucleotide exchange factors” (Small GTPases, 2022)
Read-outs that look alike come from different tables or passages of the source.

Target: T1, P-Rex1 DHPH domains (Homo sapiens, UniProt Q8TCU6)
T1 construct: 100 nM EE-P-Rex1 DHPH domains (PREX-in1, compounds 2–10 and 30–128); made in house; host or cells: Sf9 cells (baculovirus)
Experiment: Liposome-based GEF activity assay, isolated P-Rex1 DHPH domains
Type: biochemical
Conditions: for remaining activity at 10 µM: 10 µM compound, 100 nM EE-P-Rex1 DHPH domains, 200 nM prenylated EE-Rac1, PREX-in1, compounds 2-10 and 30-128
Procedure: Full-length N-terminally EE-tagged P-Rex1, P-Rex2, the P-Rex1 DH and DHPH domains and the P-Rex2 DH domain were produced in Sf9 cells using baculoviral transduction and were purified using anti-EE beads, as previously described. Briefly, frozen pellets from 500 ml of Sf9 culture infected with P-Rex expressing high-titre baculovirus were resuspended in ice-cold lysis Sf9-cell lysis buffer 2 (1x PBS, 1% Triton X-100, 5 mM EGTA, 1 mM EDTA, 25 mM NaF, 20 mM β-glycerophosphate, 1 mM DTT, 100 µM PMSF, 10 μg/ml each of leupeptin, pepstatin A, aprotinin and antipain) for 5 min and then ultracentrifuged at 118,000 × g for 1 h at 4°C. Supernatants were incubated with pre-washed anti-EE beads for 90 min on ice with end-over-end rotation. Beads were washed 4 times in wash buffer (2x PBS, 0.1% Triton X-100, 1 mM EGTA) and 5 times in elution buffer (1x PBS, 10% glycerol, 1 mM DTT, 1 mM EGTA, 0.01% Na azide), and protein was eluted by incubation with elution buffer containing Ac-EEYMPME peptide as described above. Protein was concentrated in a YM-100 Centricon (Millipore) at 5000 × g at 4°C. Fatty acid-free BSA and glycerol were added to final concentrations of 2 mg/ml and 50%, respectively. Protein concentration and purity were determined by coomassie staining of SDS-PAGE gels. Full-length Tiam1, expressed in and purified from Sf9 cells, was a kind gift from Angeliki Malliri, CRUK Manchester Institute, UK. The ITSN1 DHPH domains and Ect2 DHPH domains, produced in and purified from bacteria, were a kind gift from Kent Rossman, University of North Carolina, Chapel Hill, USA. The DOCK10 DHR2 domain, produced in and purified from bacteria, was a kind gift from Danni Fan, Institute of Cancer Research, London, UK. All small GTPase and GEF proteins were stored in aliquots at −80°C and were snap-frozen in liquid N2 after each use.
Liposome-based GEF activity assays were carried out essentially as described, except that GEFs were incubated with inhibitor compounds prior to the assay. GEFs (full-length P-Rex1, P-Rex2, and Tiam1, P-Rex1 DH and DHPH domains, P-Rex2 DH domain, ITSN1 DHPH domains, ECT2 DHPH domains or DOCK10 DHR2 domain) were diluted in 20 mM HEPES (pH 7.0 at 4°C), 200 mM KCl, 10% ethylene glycerol, 1% betaine, 500 µM EGTA, 0.01% azide. […] The final 10 µl samples contained GTPase, GEF and inhibitor at concentrations as stated, in 20 mM HEPES pH 7.5, 100 mM NaCl, 1 mM MgCl2, 1 mM EGTA, 1 mM DTT, 10 mg/ml fatty acid-free BSA, liposomes consisting of phosphatidylcholine, -serine and -inositol (200 µM each), with or without 10 µM PIP3, 1 µM GTPγS and 80 nM (1 µCi) ^35S-GTPγS. Positive controls contained additionally 2 mM EDTA to induce maximal GTP-loading of the GTPase. Samples were incubated at 30°C for 10 min, and reactions were stopped by the addition of 400 µl ice-cold wash buffer (1x PBS, 1 mM EGTA, 10 mM MgCl2, 1% Triton X-100, 100 µM GTP). Small GTPases were isolated using anti-EE antibody-coupled Sepharose beads or glutathione Sepharose beads, as appropriate, by incubation on ice for 90 min with end-over-end rotation, four washes in ice-cold wash buffer and resuspension of beads in Ultima Gold scintillation fluid (Perkin Elmer). ^35S-GTPγS incorporation was assessed by scintillation counting (Packard 1600TR, Liquid Scintillation Analyser).

T1 sequence (Q8TCU6 49-392 limits assumed): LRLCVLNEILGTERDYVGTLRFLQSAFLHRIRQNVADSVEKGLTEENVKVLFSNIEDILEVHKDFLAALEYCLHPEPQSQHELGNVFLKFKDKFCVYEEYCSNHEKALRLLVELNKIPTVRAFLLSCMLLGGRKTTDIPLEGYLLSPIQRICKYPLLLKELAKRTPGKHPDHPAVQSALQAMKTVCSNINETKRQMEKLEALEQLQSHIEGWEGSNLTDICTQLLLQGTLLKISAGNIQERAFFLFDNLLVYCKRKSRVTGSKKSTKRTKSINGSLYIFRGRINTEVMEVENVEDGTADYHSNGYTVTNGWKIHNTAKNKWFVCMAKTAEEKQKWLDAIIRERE

Row | SMILES | remaining activity at 10 µM [%] | inhibition at 10 µM (100 nM DHPH domains, without PIP3, read-out: inhibition of constitutive Rac-GEF activity of isolated P-Rex1 DHPH domains) [%] | inhibition at 10 µM (Rho-GEF selectivity panel, 200 nM GTPase, read-out: inhibition of P-Rex1 DHPH Rac-GEF activity) [%] | IC50 (liposome-based GEF assay, 200 nM prenylated EE-Rac2 as substrate, read-out: IC50 of inhibition of P-Rex1 DHPH Rac-GEF activity) [µM]
1 | CC1CCC(C(C)C)c2nn(C(=O)/C=C\c3ccccc3)c(-c3cccc4ccccc34)c21 (centres unmarked) [#10] | 28 |  |  | 
2 | COc1ccc(-c2[nH]nc3c2C(c2ccc(-c4ccc(Cl)cc4)o2)C(C#N)=C(N)O3)cc1 (centres unmarked) [PREX-in1, 6-amino-4-[5-(4-chlorophenyl)-2-furyl]-3-(4-methoxyphenyl)-2,4-dihydropyrano[2,3-c]pyrazole-5-carbonitrile] | 3 | 100 | > 90 | 4.5
